Laboratory results taken from PubChem BioAssay (NCI).
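Assay format: 96-well plates, 48-hour exposure. Here, GI50 denotes the concentration required for 50% inhibition of growth. TGI denotes the concentration required for complete inhibition of growth.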

Legend:
Experiment in all cases: NCI-60 cell line screen, 48 h
786-0 renal = test system: 786-0 renal
A549 NSCLC = test system: A549 NSCLC
DU-145 prostate = test system: DU-145 prostate
NCI-H23 lung = test system: NCI-H23 lung
UACC-257 melanoma = test system: UACC-257 melanoma
SK-MEL-2 melanoma = test system: SK-MEL-2 melanoma
OVCAR-5 ovarian = test system: OVCAR-5 ovarian
HOP-62 NSCLC = test system: HOP-62 NSCLC
OVCAR-8 ovarian = test system: OVCAR-8 ovarian
MDA-MB-435 = test system: MDA-MB-435

SMILES	GI50 (786-0 renal) [µM]	TGI (786-0 renal) [µM]	GI50 (A549 NSCLC) [µM]	TGI (A549 NSCLC) [µM]	GI50 (DU-145 prostate) [µM]	TGI (DU-145 prostate) [µM]	GI50 (NCI-H23 lung) [µM]	TGI (NCI-H23 lung) [µM]	GI50 (UACC-257 melanoma) [µM]	TGI (UACC-257 melanoma) [µM]	GI50 (SK-MEL-2 melanoma) [µM]	TGI (SK-MEL-2 melanoma) [µM]	GI50 (OVCAR-5 ovarian) [µM]	TGI (OVCAR-5 ovarian) [µM]	GI50 (HOP-62 NSCLC) [µM]	TGI (HOP-62 NSCLC) [µM]	GI50 (OVCAR-8 ovarian) [nM]	TGI (OVCAR-8 ovarian) [µM]	GI50 (MDA-MB-435) [µM]	TGI (MDA-MB-435) [µM]
COc1cc(/C=C/c2ccc3c(Br)cc(Br)c(O)c3n2)ccc1O	1.69	6.93	1.21	12.9	2.41	17.6	1.99	16.4	7.61	22	6.11	22.2	1.49	5.84	1.51	8.07	2140	15.5	3.38	19.6
CC(C)C[C@H](NC(=O)CCn1ccc2ccccc2c1=O)B(O)O	4.76	> 100	8.41	> 100	9.13	> 100	25.4	> 100	3.68	33.8	3.58	32.5	18.8	> 100	4.51	22.1	15300	> 100	1.27	2.81
Nc1nc(N)c(CCCCc2ccccc2)c(N)n1		> 100		> 100		> 100		> 100		> 100		> 100		> 100		> 100		> 100		> 100
O=C(Nc1ccccc1OC(=O)c1ccccc1)c1ccccc1	15.6	> 100	16.5	> 100	23.1	88.7	8.05	> 100	35.1	> 100	51.1	> 100	51.5	> 100	18.8	> 100	6350	> 100	24.5	> 100
COc1ccc(Nc2ccnc(N3CCN(c4ccnc5cc(Cl)ccc45)CC3)n2)cc1	1.4	6.87	1.47	> 100	2.59	> 30.5	1.65	9.4	1.25	2.84	1.03	3.27	2.15	> 100	1.27	> 29	1680	> 21.7	0.227	0.707
Oc1cccc2c1NCCC2	0.734	> 100	0.111	> 32.2	0.229	54.8	0.103	> 37	1.12	5.83	0.433	2.96	4.35	> 100	0.146	42.5	129	22.3	0.122	> 100
O=C(NNS(=O)(=O)c1ccc(Cl)cc1Cl)c1cccnc1Nc1ccc(Cl)cc1	19.6	49.4	24.4	70.1	41.8	> 100	17.3	42.6	22.9	60.5	18.6	42.5	26.2	78.2	16.6	37.7	26700	74.9	27.3	81.7
CN1CCc2nc3sc(C(N)=O)c(N)c3c(-c3cccs3)c2C1	4.41	> 100	3.37	> 100	3.91	86.9	2.87	12.6	4	> 100	2.67	6.22			3.27	> 100	2700	> 100	3.13	> 100
Fc1cccc(F)c1C(Nc1nncs1)Nc1nncs1		> 100		> 100		> 100		> 100		> 100		> 100		> 100		> 100		> 100		> 100
O=C(CN1N=C(c2ccc(F)cc2)CCC1=O)Nc1nc2ccccc2s1	0.235	0.607	13.7	> 100	> 25.6	> 100			> 100	> 100	> 89.8	> 100	3.39	> 92.1		> 100	788	4.33	> 73.5	> 100
O=c1c2cc(F)ccc2sc2c(NCCCNCCO)nc3ccccc3c12	1.53	3.07	1.79	3.78	1.72	3.13	1.72	3.22	1.98	3.94	1.94	4.01	1.61	3.05	1.77	3.69			1.79	3.4
C/C(=N\O)c1cccc(Nc2cc(-n3ccnc3)c3ccccc3n2)c1	12.2	28.7			18.9	35.8	16.7	33.6			16.4	31.6	20.9	40.9	16.6	31.3			10.9	24.4
Cc1ccncc1C(N)=O	> 100	> 100	> 100	> 100	> 100	> 100	> 100	> 100	> 100	> 100			> 100	> 100	> 100	> 100	> 100000	> 100	> 100	> 100
CC1c2ccccc2CCN1c1ccc(CO)c(Cl)c1 (stereo not drawn)	16.7	43.1	0.759	17.1	11.6	> 53	21.8	> 72.3	0.0412	0.191			0.0427	0.187	1.67	25.3	5770	52.6	17.3	53.5
